Positions of bridges follow the written chain, without caps; N, C: chain ends. Non-standard residues stand in square brackets, D forms with d. Residues, ends and D or L forms follow the SMILES beside them. 2Nal = N[C@@H](Cc1ccc2ccccc2c1)C(=O)O; Met(O2) = CS(=O)(=O)CC[C@H](N)C(=O)O; hCit = NC(=O)NCCCC[C@H](N)C(=O)O; Nle = CCCC[C@H](N)C(=O)O
Target: human TSP1 (Homo sapiens, UniProt P07996)
Test: Cell adhesion inhibition assay (HUVEC adhesion to TSP1-coated plate)
Type: cell-based
Settings: HUVEC adhesion to TSP1-coated plate; read-out: cell adhesion inhibition (Table 4)
Description: As referred to herein, the TSP1 inhibitory activity refers to the activity to inhibit one or more effects of TSP1, including angiostatic effect. The TSP1 inhibitory activity is measured by a cell adhesion inhibition assay using human TSP1 and vascular endothelial cells as described hereinbelow in the Examples section. In this assay, when the 50% inhibitory concentration (IC5O) of a test substance is 200 nM or less, the test substance is determined to have TSP1 inhibitory activity.
(Test Example 1) Cell Adhesion Inhibition Assay
I. Materials and Reagents
96 well Non-treated White with clear bottom (Coster, 3632)
BrightMax adhesive sealing films (EXCEL Scientific, WT50)
Proteosave®SS 15 mL (Sumitomo Bakelite, MS-52150)
Thrombospondin human platelet (Calbiochem, 605225)
EGM-2 MV (Lonza, CC-3202): for HUVEC passaging
Collagen coated dish (IWAKI, 4020-010): for HUVEC passaging
Lipidure®-BL802 (NOF Corporation), 5% solution
Albumin solution (35%) fraction V from Bovine (Sigma, A7979)
CellTiter-Glo (Promega, G7572)
Thrombospondin 1 vial (25 μg) was dissolved in TBS (+2 mM CaCl2; the same shall apply hereunder) to make a 200 μg/mL solution, which was diluted with TBS to a concentration of 10 μg/mL in Proteosave® 15 mL tube. The 10 μg/mL solution was dispensed into a 96 well plate at a volume of 50 μL/well (no reservoir was used since the protein easily adsorbs on it), and the plate was left to stand at 4° C. overnight.
Lipidure® was diluted 10-fold with TBS to make a 0.5% solution. After a buffer was discarded from the plate that had been coated at the step of <Plate coat> as described above, the 0.5% solution was dispensed into all wells to be used at a volume of 100 μL/well, and the plate was left to stand at room temperature for 1 hour.
A 0.2 μM solution of each sample was prepared using a dilution buffer (DMEM+0.5% BSA). 2 μL of the 0.2 μM solution was diluted with 500 μL, of dilution buffer to prepare a diluted sample. As a vehicle control, DMSO was diluted in the same way as the samples.
A blocking solution was discarded from the plate that had been treated at the step of <Plate blocking> as described above, and the plate was washed three times with 150 μL/well of TBS. The washing solution used for the third washing was completely sucked out by an aspirator, and the diluted sample was dispensed into the plate at a volume of 50 μL/well. Then, the plate was left to stand at room temperature for 15 to 30 minutes.
To maintain HUVECs, EGM2-MV and a collagen coated dish were used (the cells were ceased to be used after 10th or 1 lth passage since the cell proliferation rate declined at this stage). The cells were dispersed with 0.05% Trypsin/EDTA, harvested in DMEM/0.5% BSA, and centrifuged at 1000 rpm for 3 minutes. After removal of supernatant, the cells were washed once with a DMEM buffer. The cells were resuspended in a DMEM buffer, counted for cell number, and diluted to 10000 cells/50 μL. The cell suspension was dispensed at a volume of 50 μL/well into the plate into which the sample had been dispensed, mixed gently, and incubated at 37° C. for 2.5 hours.
After cell adhesion was confirmed, the culture medium was completely removed by an aspirator, and 100 μL/well of DMEM/0.5% BSA was gently dispensed. Then, DMEM/0.5% BSA was completely removed by an aspirator, and 50 μL/well of DMEM/0.5% BSA was dispensed. After a white seal was applied to the bottom of the plate, 50 μL/well of CellTiter-Glo® was dispensed, and the solution was stirred for 2 minutes and left to stand at room temperature for 8 minutes. […] was detected using EnVision Xcite Multilabel Reader (produced by Perkin Elmer).
On the basis of the measured fluorescence values, the IC50 values (nM) of the different macrocyclic polypeptides for inhibition of cell adhesion were calculated.

human TSP1, sequence (P07996 19-1170 limits assumed): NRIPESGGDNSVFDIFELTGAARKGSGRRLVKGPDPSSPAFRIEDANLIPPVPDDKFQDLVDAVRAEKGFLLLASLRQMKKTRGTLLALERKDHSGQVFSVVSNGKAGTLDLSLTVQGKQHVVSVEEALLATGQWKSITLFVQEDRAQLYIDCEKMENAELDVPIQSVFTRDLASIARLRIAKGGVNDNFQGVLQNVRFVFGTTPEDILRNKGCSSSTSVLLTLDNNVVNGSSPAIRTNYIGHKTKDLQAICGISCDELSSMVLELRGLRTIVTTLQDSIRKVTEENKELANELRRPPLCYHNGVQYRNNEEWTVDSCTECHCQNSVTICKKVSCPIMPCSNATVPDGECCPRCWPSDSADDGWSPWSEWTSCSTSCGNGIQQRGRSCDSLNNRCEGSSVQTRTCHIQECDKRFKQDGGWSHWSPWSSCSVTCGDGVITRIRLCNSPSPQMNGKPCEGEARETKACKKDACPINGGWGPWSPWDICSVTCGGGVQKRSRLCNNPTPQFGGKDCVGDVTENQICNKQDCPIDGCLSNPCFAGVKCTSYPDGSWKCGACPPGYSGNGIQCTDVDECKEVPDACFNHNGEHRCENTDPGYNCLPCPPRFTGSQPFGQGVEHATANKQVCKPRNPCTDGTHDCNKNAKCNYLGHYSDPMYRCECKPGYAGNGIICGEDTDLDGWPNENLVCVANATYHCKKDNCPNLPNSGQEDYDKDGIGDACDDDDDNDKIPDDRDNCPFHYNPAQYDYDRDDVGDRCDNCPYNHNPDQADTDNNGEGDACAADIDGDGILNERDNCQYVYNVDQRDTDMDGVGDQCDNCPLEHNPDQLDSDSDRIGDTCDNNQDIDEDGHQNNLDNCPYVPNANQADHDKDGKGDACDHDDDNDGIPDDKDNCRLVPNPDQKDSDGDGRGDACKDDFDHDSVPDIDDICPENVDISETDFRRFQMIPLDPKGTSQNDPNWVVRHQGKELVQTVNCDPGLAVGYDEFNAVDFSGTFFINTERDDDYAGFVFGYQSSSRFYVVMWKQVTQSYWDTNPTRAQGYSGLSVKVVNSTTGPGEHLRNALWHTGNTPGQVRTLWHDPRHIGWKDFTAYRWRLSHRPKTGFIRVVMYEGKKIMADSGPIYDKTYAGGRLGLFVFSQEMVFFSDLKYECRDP

Row | IC50 [nM] | SMILES
1 | 14.2 | CCCC[C@@H]1NC(=O)[C@H](Cc2c[nH]c3ccccc23)NC(=O)[C@H](CC(=O)O)NC(=O)[C@H](CCCNC(=N)N)NC(=O)CNC(=O)[C@H](CO)NC(=O)[C@H]([C@@H](C)CC)NC(=O)[C@H](Cc2ccc3ccccc3c2)NC(=O)[C@H](CCC(N)=O)NC(=O)CSC[C@@H](C(N)=O)NC(=O)[C@H](C(C)C)NC(=O)[C@H](Cc2c[nH]c3ccccc23)NC(=O)[C@H](CCCCN)NC1=O [Compound 86] ({CH2CO}-Q[2Nal]ISGRDW[Nle]KWVC-NH2; thioether N-13)
2 | 17.2 | CCCC[C@@H]1NC(=O)[C@H](Cc2c[nH]c3ccccc23)NC(=O)[C@H](CC(=O)O)NC(=O)[C@H](CCCNC(=N)N)NC(=O)CNC(=O)[C@H](CO)NC(=O)[C@H]([C@@H](C)CC)NC(=O)[C@H](Cc2ccc3ccccc3c2)NC(=O)[C@H](CCCCN)NC(=O)CSC[C@@H](C(N)=O)NC(=O)[C@H](C(C)C)NC(=O)[C@H](Cc2c[nH]c3ccccc23)NC(=O)[C@H](CCCCN)NC1=O [Compound 90] ({CH2CO}-K[2Nal]ISGRDW[Nle]KWVC-NH2; thioether N-13)
3 | 17.1 | CCCC[C@@H]1NC(=O)[C@H](Cc2c[nH]c3ccccc23)NC(=O)[C@H](CC(=O)O)NC(=O)[C@H](CCCNC(=N)N)NC(=O)CNC(=O)[C@H](CO)NC(=O)[C@H]([C@@H](C)CC)NC(=O)[C@H](Cc2ccc3ccccc3c2)NC(=O)[C@H](Cc2c[nH]cn2)NC(=O)CSC[C@@H](C(N)=O)NC(=O)[C@H](C(C)C)NC(=O)[C@H](Cc2c[nH]c3ccccc23)NC(=O)[C@H](CCCCN)NC1=O [Compound 91] ({CH2CO}-H[2Nal]ISGRDW[Nle]KWVC-NH2; thioether N-13)
4 | 15.5 | CCCC[C@@H]1NC(=O)[C@H](Cc2c[nH]c3ccccc23)NC(=O)[C@H](CC(=O)O)NC(=O)[C@H](CCCCN)NC(=O)CNC(=O)[C@H](CO)NC(=O)[C@H]([C@@H](C)CC)NC(=O)[C@H](Cc2ccc3ccccc3c2)NC(=O)[C@H](CO)NC(=O)CSC[C@@H](C(N)=O)NC(=O)[C@H](C(C)C)NC(=O)[C@H](Cc2c[nH]c3ccccc23)NC(=O)[C@H](CCCNC(=N)N)NC1=O [Compound 92] ({CH2CO}-S[2Nal]ISGKDW[Nle]RWVC-NH2; thioether N-13)
5 | 14.2 | CC(C)[C@@H]1NC(=O)[C@H](Cc2c[nH]c3ccccc23)NC(=O)[C@H](C(C)C)NC(=O)[C@H](C(C)C)NC(=O)[C@H](Cc2c[nH]c3ccccc23)NC(=O)[C@H](CC(=O)O)NC(=O)[C@H](CCCCN)NC(=O)CNC(=O)[C@H](CO)NC(=O)[C@H](CCCNC(=N)N)NC(=O)[C@H](Cc2ccc3ccccc3c2)NC(=O)CSC[C@@H](C(N)=O)NC1=O [Compound 99] ({CH2CO}-[2Nal]RSGKDWVVWVC-NH2; thioether N-12)
6 | 19.5 | CCCC[C@@H]1NC(=O)[C@H](Cc2c[nH]c3ccccc23)NC(=O)[C@H](CC(N)=O)NC(=O)[C@H](Cc2c[nH]cn2)NC(=O)CNC(=O)[C@H](CO)NC(=O)[C@H](CCCNC(=N)N)NC(=O)[C@H](Cc2ccc3ccccc3c2)NC(=O)CSC[C@@H](C(N)=O)NC(=O)[C@H](C(C)C)NC(=O)[C@H](Cc2c[nH]c3ccccc23)NC(=O)[C@H](C(C)C)NC1=O [Compound 100] ({CH2CO}-[2Nal]RSGHNW[Nle]VWVC-NH2; thioether N-12)
7 | 19.6 | CCCC[C@@H]1NC(=O)[C@H](Cc2c[nH]c3ccccc23)NC(=O)[C@H](CC(=O)O)NC(=O)[C@H](Cc2c[nH]cn2)NC(=O)CNC(=O)[C@H](CO)NC(=O)[C@H](CCCNC(=N)N)NC(=O)[C@H](Cc2ccc3ccccc3c2)NC(=O)CSC[C@@H](C(N)=O)NC(=O)[C@H](C(C)C)NC(=O)[C@H](Cc2c[nH]c3ccccc23)NC(=O)[C@H](C(C)C)NC1=O [Compound 101] ({CH2CO}-[2Nal]RSGHDW[Nle]VWVC-NH2; thioether N-12)

Second part, the compound before the results:

Row | SMILES | IC50 [nM]
8 | CCCC[C@@H]1NC(=O)[C@H](Cc2c[nH]c3ccccc23)NC(=O)[C@H](CC(=O)O)NC(=O)[C@H](CCCNC(=N)N)NC(=O)CNC(=O)[C@H](CO)NC(=O)[C@H]([C@@H](C)CC)NC(=O)[C@H](Cc2ccc3ccccc3c2)NC(=O)[C@H](C)NC(=O)CSC[C@@H](C(N)=O)NC(=O)[C@H](C(C)C)NC(=O)[C@H](Cc2c[nH]c3ccccc23)NC(=O)[C@H](CCCCN)NC1=O [Compound 80] ({CH2CO}-A[2Nal]ISGRDW[Nle]KWVC-NH2; thioether N-13) | 11.5
9 | CCCC[C@@H]1NC(=O)[C@H](Cc2c[nH]c3ccccc23)NC(=O)[C@H](CC(=O)O)NC(=O)[C@H](CCCNC(=N)N)NC(=O)CNC(=O)[C@H](CO)NC(=O)[C@H]([C@@H](C)CC)NC(=O)[C@H](Cc2ccc3ccccc3c2)NC(=O)[C@H]([C@@H](C)O)NC(=O)CSC[C@@H](C(N)=O)NC(=O)[C@H](C(C)C)NC(=O)[C@H](Cc2c[nH]c3ccccc23)NC(=O)[C@H](CCCCN)NC1=O [Compound 85] ({CH2CO}-T[2Nal]ISGRDW[Nle]KWVC-NH2; thioether N-13) | 15.5

Same assay, conditions: HUVEC adhesion to human platelet thrombospondin-coated plate, 2.5 hours, CellTiter-Glo; read-out: Cell adhesion IC50

Row | IC50 [nM] | SMILES
10 | 20.7 | CCCC[C@@H]1NC(=O)[C@H](Cc2c[nH]c3ccccc23)NC(=O)[C@H](CC(N)=O)NC(=O)[C@H](Cc2c[nH]cn2)NC(=O)CNC(=O)[C@H](CO)NC(=O)[C@H]([C@@H](C)CC)NC(=O)[C@H](Cc2ccc3ccccc3c2)NC(=O)CSC[C@@H](C(N)=O)NC(=O)[C@H](C(C)C)NC(=O)[C@H](Cc2c[nH]c3ccccc23)NC(=O)[C@H](CCCCN)NC1=O [Compound 59] ({CH2CO}-[2Nal]ISGHNW[Nle]KWVC-NH2; thioether N-12)
11 | 28.1 | CCCC[C@@H]1NC(=O)[C@H](Cc2c[nH]c3ccccc23)NC(=O)[C@H](CC(=O)O)NC(=O)[C@@H]2CCCN2C(=O)CNC(=O)[C@H](CO)NC(=O)[C@H]([C@@H](C)CC)NC(=O)[C@H](Cc2ccc3ccccc3c2)NC(=O)CSC[C@@H](C(N)=O)NC(=O)[C@H](C(C)C)NC(=O)[C@H](Cc2c[nH]c3ccccc23)NC(=O)[C@H](CCCCN)NC1=O [Compound 68] ({CH2CO}-[2Nal]ISGPDW[Nle]KWVC-NH2; thioether N-12)
12 | 17.1 | CCCC[C@@H]1NC(=O)[C@H](Cc2c[nH]c3ccccc23)NC(=O)[C@H](CC(=O)O)NC(=O)[C@H](CCS(C)(=O)=O)NC(=O)CNC(=O)[C@H](CO)NC(=O)[C@H]([C@@H](C)CC)NC(=O)[C@H](Cc2ccc3ccccc3c2)NC(=O)CSC[C@@H](C(N)=O)NC(=O)[C@H](C(C)C)NC(=O)[C@H](Cc2c[nH]c3ccccc23)NC(=O)[C@H](CCCCN)NC1=O [Compound 71] ({CH2CO}-[2Nal]ISG[Met(O2)]DW[Nle]KWVC-NH2; thioether N-12)
13 | 20.7 | CCCC[C@@H]1NC(=O)[C@H](Cc2c[nH]c3ccccc23)NC(=O)[C@H](CC(=O)O)NC(=O)[C@H](CCCCNC(N)=O)NC(=O)CNC(=O)[C@H](CO)NC(=O)[C@H]([C@@H](C)CC)NC(=O)[C@H](Cc2ccc3ccccc3c2)NC(=O)CSC[C@@H](C(N)=O)NC(=O)[C@H](C(C)C)NC(=O)[C@H](Cc2c[nH]c3ccccc23)NC(=O)[C@H](CCCCN)NC1=O [Compound 74] ({CH2CO}-[2Nal]ISG[hCit]DW[Nle]KWVC-NH2; thioether N-12)
14 | 16.1 | CCCC[C@@H]1NC(=O)[C@H](Cc2c[nH]c3ccccc23)NC(=O)[C@H](CC(=O)O)NC(=O)[C@H](CCCNC(=N)N)NC(=O)CNC(=O)[C@H](CO)NC(=O)[C@H]([C@@H](C)CC)NC(=O)[C@H](Cc2ccc3ccccc3c2)NC(=O)CNC(=O)CSC[C@@H](C(N)=O)NC(=O)[C@H](C(C)C)NC(=O)[C@H](Cc2c[nH]c3ccccc23)NC(=O)[C@H](CCCCN)NC1=O [Compound 75] ({CH2CO}-G[2Nal]ISGRDW[Nle]KWVC-NH2; thioether N-13)
